Reference: ChEMBL document CHEMBL5537158, “Polymyxins with Potent Antibacterial Activity against Colistin-Resistant Pathogens: Fine-Tuning Hydrophobicity with Unnatural Amino Acids” (J Med Chem, 2024)
Values after ≈ are worked out from the molar mass of the structure shown. Positions of bridges follow the written chain, without caps; N, C: chain ends. Non-standard residues stand in square brackets, D forms with d. Residues, ends and D or L forms follow the SMILES beside them. *: point of attachment. Benzoyl(4-Ph) = O=C(c1ccc(-c2ccccc2)cc1)*; Dab = NCC[C@H](N)C(=O)O

Assays:
Escherichia coli [1] = assay: Potency index, ratio of colistin MIC to test compound MIC for antibacterial activity against Escherichia coli harboring mcr-1; type: functional
Acinetobacter baumannii [2] = assay: Antimicrobial activity against colistin resistant Acinetobacter baumannii ATCC 3658/17 assessed as bacterial growth inhibition incubated for 20 hrs by broth microdilution method; type: functional
Acinetobacter baumannii [3] = assay: Antimicrobial activity against colistin resistant Acinetobacter baumannii clinical isolate 1 assessed as bacterial growth inhibition incubated for 20 hrs by broth microdilution method; type: functional
Pseudomonas aeruginosa [4] = assay: Antimicrobial activity against Pseudomonas aeruginosa PAO1 assessed as bacterial growth inhibition incubated for 20 hrs by broth microdilution method; type: functional
Pseudomonas aeruginosa [5] = assay: Antimicrobial activity against Pseudomonas aeruginosa ATCC 27853 assessed as bacterial growth inhibition incubated for 20 hrs by broth microdilution method; type: functional
Escherichia coli [6] = assay: Antibacterial activity against […] Escherichia coli clinical isolate 3 assessed as bacterial growth inhibition incubated for 20 hrs by broth microdilution method; type: functional
Klebsiella pneumoniae [7] = assay: Antimicrobial activity against Klebsiella pneumoniae ATCC 13883 assessed as bacterial growth inhibition incubated for 20 hrs by broth microdilution method; type: functional
Escherichia coli [8] = assay: Antimicrobial activity against […] Escherichia coli harboring mcr-1 assessed as bacterial growth inhibition incubated for 20 hrs by broth microdilution method; type: functional
Acinetobacter baumannii [9] = assay: Antimicrobial activity against colistin resistant Acinetobacter baumannii clinical isolate 2 assessed as bacterial growth inhibition incubated for 20 hrs by broth microdilution method; type: functional
Klebsiella pneumoniae [10] = assay: Antimicrobial activity against colistin resistant Klebsiella pneumoniae clinical isolate 2 assessed as bacterial growth inhibition incubated for 20 hrs by broth microdilution method; type: functional
Escherichia coli [11] = assay: Antibacterial activity against […] Escherichia coli clinical isolate 2 assessed as bacterial growth inhibition incubated for 20 hrs by broth microdilution method; type: functional
Acinetobacter baumannii [12] = assay: Antimicrobial activity against colistin resistant Acinetobacter baumannii clinical isolate 3 assessed as bacterial growth inhibition incubated for 20 hrs by broth microdilution method; type: functional
Acinetobacter baumannii [13] = assay: Antimicrobial activity against Acinetobacter baumannii ATCC 19606 assessed as bacterial growth inhibition incubated for 20 hrs by broth microdilution method; type: functional
Acinetobacter baumannii [14] = assay: Antimicrobial activity against colistin resistant Acinetobacter baumannii clinical isolate 4 assessed as bacterial growth inhibition incubated for 20 hrs by broth microdilution method; type: functional
Klebsiella pneumoniae [15] = assay: Antimicrobial activity against colistin resistant Klebsiella pneumoniae clinical isolate 1 assessed as bacterial growth inhibition incubated for 20 hrs by broth microdilution method; type: functional
Escherichia coli [16] = assay: Potency index, ratio of colistin MIC to test compound MIC for antibacterial activity against […] Escherichia coli; type: functional
Pseudomonas aeruginosa [17] = assay: Potency index, ratio of colistin MIC to test compound MIC for antibacterial activity against colistin resistant Pseudomonas aeruginosa clinical isolate 1; type: functional
Klebsiella pneumoniae [18] = assay: Antimicrobial activity against colistin resistant Klebsiella pneumoniae clinical isolate 3 assessed as bacterial growth inhibition incubated for 20 hrs by broth microdilution method; type: functional
Pseudomonas aeruginosa [19] = assay: Antimicrobial activity against colistin resistant Pseudomonas aeruginosa clinical isolate 1 assessed as bacterial growth inhibition incubated for 20 hrs by broth microdilution method; type: functional
Klebsiella pneumoniae [20] = assay: Antimicrobial activity against colistin resistant Klebsiella pneumoniae clinical isolate 4 assessed as bacterial growth inhibition incubated for 20 hrs by broth microdilution method; type: functional
Pseudomonas aeruginosa [21] = assay: Antimicrobial activity against colistin resistant Pseudomonas aeruginosa 7197/19 assessed as bacterial growth inhibition incubated for 20 hrs by broth microdilution method; type: functional
Escherichia coli [22] = assay: Antibacterial activity against Escherichia coli ATCC 25922 assessed as bacterial growth inhibition incubated for 20 hrs by broth microdilution method; type: functional
Escherichia coli [23] = assay: Antibacterial activity against […] Escherichia coli ATCC 25922 assessed as bacterial growth inhibition incubated for 20 hrs by broth microdilution method; type: functional
Klebsiella pneumoniae [24] = assay: Antimicrobial activity against colistin resistant Klebsiella pneumoniae ATCC 13883 assessed as bacterial growth inhibition incubated for 20 hrs by broth microdilution method; type: functional
Escherichia coli [25] = assay: Antibacterial activity against […] Escherichia coli clinical isolate 1 assessed as bacterial growth inhibition incubated for 20 hrs by broth microdilution method; type: functional
Pseudomonas aeruginosa [26] = assay: Potency index, ratio of polymyxin B MIC to test compound MIC for antibacterial activity against colistin resistant Pseudomonas aeruginosa clinical isolate 1; type: functional
Klebsiella pneumoniae [27] = assay: Antimicrobial activity against colistin resistant Klebsiella pneumoniae clinical isolate 5 assessed as bacterial growth inhibition incubated for 20 hrs by broth microdilution method; type: functional
Acinetobacter baumannii [28] = assay: Antimicrobial activity against colistin resistant Acinetobacter baumannii ATCC 19606 assessed as bacterial growth inhibition incubated for 20 hrs by broth microdilution method; type: functional
Klebsiella pneumoniae [29] = assay: Antimicrobial activity against colistin resistant Klebsiella pneumoniae clinical isolate 6 assessed as bacterial growth inhibition incubated for 20 hrs by broth microdilution method; type: functional
Erythrocyte = assay: Hemolytic activity in human RBC at 400 ug/ml after 1 hr; type: toxicity, cell-based; conditions: erythrocyte, 1 h, at 400 µg/mL
HepG2 = assay: Cytotoxicity against human HepG2 cells incubated for 48 hrs by MTT assay; type: toxicity, cell-based

Row | Compound | MIC (Acinetobacter baumannii [2]) [µg/mL] | MIC (Acinetobacter baumannii [3]) [µg/mL] | MIC (Pseudomonas aeruginosa [4]) [µg/mL] | MIC (Pseudomonas aeruginosa [5]) [µg/mL] | MIC (Escherichia coli [6]) [µg/mL] | MIC (Klebsiella pneumoniae [7]) [µg/mL] | MIC (Escherichia coli [8]) [µg/mL] | MIC (Acinetobacter baumannii [9]) [µg/mL] | MIC (Klebsiella pneumoniae [10]) [µg/mL] | MIC (Escherichia coli [11]) [µg/mL] | MIC (Acinetobacter baumannii [12]) [µg/mL] | MIC (Acinetobacter baumannii [13]) [µg/mL] | MIC (Acinetobacter baumannii [14]) [µg/mL] | MIC (Klebsiella pneumoniae [15]) [µg/mL] | Ratio (Pseudomonas aeruginosa [17]) | MIC (Klebsiella pneumoniae [18]) [µg/mL] | MIC (Pseudomonas aeruginosa [19]) [µg/mL] | MIC (Pseudomonas aeruginosa [21]) [µg/mL] | MIC (Escherichia coli [22]) [µg/mL] | MIC (Klebsiella pneumoniae [24]) [µg/mL] | other results
1 | CCCCCCCC(=O)N[C@@H](CCN)C(=O)N[C@H](C(=O)N[C@@H](CCN)C(=O)N[C@H]1CCNC(=O)[C@H]([C@@H](C)O)NC(=O)[C@H](CCN)NC(=O)[C@H](CCN)NC(=O)[C@H](CCCc2ccccc2)NC(=O)[C@@H](Cc2ccccc2)NC(=O)[C@H](CCN)NC1=O)[C@@H](C)O | < 0.125 | 2 (≈ 1.6 µM) | < 0.125 | 0.125 (≈ 0.0999 µM) | 1 (≈ 0.799 µM) | < 0.125 | 0.5 (≈ 0.4 µM) | 0.5 (≈ 0.4 µM) | 4 (≈ 3.2 µM) | 1 (≈ 0.799 µM) | 1 (≈ 0.799 µM) | 0.125 (≈ 0.0999 µM) | 2 (≈ 1.6 µM) | 8 (≈ 6.39 µM) | 2 | 2 (≈ 1.6 µM) | 2 (≈ 1.6 µM) |  |  |  | Ratio (Escherichia coli [1]): 4; Ratio (Escherichia coli [16]): 4
2 | CCCCCCCC(=O)N[C@@H](CCN)C(=O)N[C@H](C(=O)N[C@@H](CCN)C(=O)N[C@H]1CCNC(=O)[C@H]([C@@H](C)O)NC(=O)[C@H](CCN)NC(=O)[C@H](CCN)NC(=O)[C@H](CC(C)C)NC(=O)[C@@H](Cc2ccc(Br)cc2)NC(=O)[C@H](CCN)NC1=O)[C@@H](C)O |  | 8 (≈ 6.31 µM) | 0.125 (≈ 0.0986 µM) |  | 2 (≈ 1.58 µM) | 0.125 (≈ 0.0986 µM) | 1 (≈ 0.788 µM) |  |  | 2 (≈ 1.58 µM) | 2 (≈ 1.58 µM) |  | 2 (≈ 1.58 µM) | 16 (≈ 12.6 µM) |  |  | 2 (≈ 1.58 µM) | 0.125 (≈ 0.0986 µM) | < 0.125 | 16 (≈ 12.6 µM) | MIC (Klebsiella pneumoniae [20]): 16 µg/mL (≈ 12.6 µM); MIC (Escherichia coli [23]): 0.125 µg/mL (≈ 0.0986 µM); MIC (Escherichia coli [25]): 2 µg/mL (≈ 1.58 µM); Ratio (Pseudomonas aeruginosa [26]): 2
3 | CCCCCCCC(=O)N[C@@H](CCN)C(=O)N[C@H](C(=O)N[C@@H](CCN)C(=O)N[C@H]1CCNC(=O)[C@H]([C@@H](C)O)NC(=O)[C@H](CCN)NC(=O)[C@H](CCN)NC(=O)[C@H](CCCCCC)NC(=O)[C@@H](Cc2ccccc2)NC(=O)[C@H](CCN)NC1=O)[C@@H](C)O | 0.25 (≈ 0.205 µM) |  | < 0.125 | 0.25 (≈ 0.205 µM) | 1 (≈ 0.821 µM) | < 0.123 | 0.5 (≈ 0.411 µM) | 16 (≈ 13.1 µM) | 8 (≈ 6.57 µM) | 1 (≈ 0.821 µM) |  | 0.125 (≈ 0.103 µM) |  | 16 (≈ 13.1 µM) | 2 | 4 (≈ 3.29 µM) | 2 (≈ 1.64 µM) |  | < 0.125 | 8 (≈ 6.57 µM) | MIC (Klebsiella pneumoniae [27]): 16 µg/mL (≈ 13.1 µM); Ratio (Escherichia coli [1]): 4; MIC (Acinetobacter baumannii [28]): 0.25 µg/mL (≈ 0.205 µM); Ratio (Pseudomonas aeruginosa [26]): 2
4 | CC[C@H](C)[C@@H]1NC(=O)[C@@H](CC(C)C)NC(=O)[C@H](CCN)NC(=O)[C@@H](NC(=O)[C@@H](CO)NC(=O)[C@@H](NC(=O)[C@H](CCN)NC(=O)c2ccc(-c3ccccc3)cc2)[C@@H](C)O)CCNC(=O)[C@H](CC(C)C)NC(=O)[C@H](CCN)NC(=O)[C@H](CCN)NC1=O ({Benzoyl(4-Ph)}-[Dab]T[dS][Dab][Dab][dL]I[Dab][Dab]L; lactam 4-C) | 1 (≈ 0.827 µM) |  |  | 0.5 (≈ 0.414 µM) | 2 (≈ 1.65 µM) | 2 (≈ 1.65 µM) | 4 (≈ 3.31 µM) |  | 1 (≈ 0.827 µM) | 4 (≈ 3.31 µM) | 4 (≈ 3.31 µM) |  |  | 1 (≈ 0.827 µM) | 2 | 2 (≈ 1.65 µM) | 2 (≈ 1.65 µM) | 1 (≈ 0.827 µM) |  | 2 (≈ 1.65 µM) | MIC (Klebsiella pneumoniae [27]): 1 µg/mL (≈ 0.827 µM); MIC (Klebsiella pneumoniae [29]): 0.5 µg/mL (≈ 0.414 µM); MIC (Acinetobacter baumannii [28]): 0.5 µg/mL (≈ 0.414 µM); MIC (Escherichia coli [23]): 2 µg/mL (≈ 1.65 µM); MIC (Escherichia coli [25]): 4 µg/mL (≈ 3.31 µM); Ratio (Pseudomonas aeruginosa [26]): 2
5 | POLYMYXIN B [listing 1 of 2 here] |  |  |  |  |  |  |  |  |  |  |  |  |  |  |  |  |  |  |  |  | Activity (Erythrocyte): < 10%; IC50 (HepG2): > 1280 µg/mL
6 | POLYMYXIN B [listing 2 of 2 here] | 8 | > 16 | 0.25 | 0.25 | 4 | 0.5 | 2 | > 16 | 8 | 2 | 8 | 0.25 | 16 | > 16 |  | 4 | 4 | 8 | 0.25 | 16 | MIC (Klebsiella pneumoniae [27]): > 16 µg/mL; MIC (Klebsiella pneumoniae [20]): 16 µg/mL; MIC (Klebsiella pneumoniae [29]): 16 µg/mL; MIC (Acinetobacter baumannii [28]): 0.125 µg/mL; MIC (Escherichia coli [23]): 0.125 µg/mL; MIC (Escherichia coli [25]): 2 µg/mL
